Assay results taken from patent US20230010871A1, “COMPLEXES COMPRISING A CA[…] AND AN ACTIVE INGREDIENT AND PROCESSES FOR THEIR PREPARATION” (FOLIUM LABS INC., priority 2019, published 2023).

Assay: Oral pharmacokinetic profile of CBD and THC complexes in rats (plasma concentration by GC-MS/MS)
Settings: per os single gavage, fasted male rats

Structure (SMILES) | CBD Cmax (average) (20 mg/kg CBD-based dose, plasma) [µg/mL] | THC average circulating levels in plasma (20 mg/kg THC-based dose)
C=C(C)[C@@H]1CCC(C)=C[C@H]1c1c(O)cc(CCCCC)cc1O [CBD, cannabidiol] | 0.0127 | 
CCCCCc1cc(O)c2c(c1)OC(C)(C)[C@@H]1CCC(C)=C[C@@H]21 [pure THC, tetrahydrocannabinol] |  | mostly below the limit of quantitation
